Experimental data published in patent US9387192B2, “Combination of rocaglamide and apoptosis inducing substances for the treatment of cancer” (DKFZ DEUTCHERS KREBSFORSCHUNGSZENTRUM, priority 2008, dated 2016).

Key:
[1] = cited from earlier work
RMA tumor = RMA tumor graft in C57/BL6 mice; format: in vivo, mouse
Procedure: C57/BL6 mice were implanted subcutaneously in the right dorsal flank region with RMA (1×10^6 cells). One day after grafting, Roc-Q (1 mg/kg body weight, dissolved in DMSO and diluted in olive oil) was administered by intraperitoneal injection (i.p.) as indicated in the figure legend. The control group was treated in an analogous manner with the vehicle. The tumor size was measured with a micrometer caliper at the indicated times and the tumor volume (V) was calculated by the formula V=(a^2×b)/2, where “a” is the width and “b” is the length in mm (Mattern et al., 1998). All protocols using and maintaining animals were approved by the German Animal Protection Authority (Office Regierungspräsidium Karlsruhe). Treated and control animals were compared for differences in tumor growth after end of treatment using the non-parametric method in a one-sided statistical test at the significance level of 0.05 (Koziol et al., 1981).
To investigate whether the effect of Roc on activation-induced cell death is also occurred in vivo, RMA cells were grafted subcutaneously into the C57/BL6 mice. One day after xenografting, the mice were randomly separated into four groups (each group contains 5 mice). One group with no treatment was taken as a control, and the other three groups received Con A, Roc-Q, or a combination of Roc-Q and Con A, respectively, three times per week by intraperitoneal injection (i.p.). Two independent experiments were carried out. In the first experiment, RMA (10×10^5 cells)-grafted mice were treated with or without 1 mg/kg body weight of Roc-Q in the presence or absence of Con A as described in FIG. 4A. No toxicity was seen up to a dose of 10 mg/kg body weight (Lee et al., 1998). Acute toxicity was reported with an LD50 of >300 mg/kg (Umezawa et al., 1997). […] In this experiment, the control mice developed tumors after 9 days.

[2] = test system: mouse leukemic RMA T cells; experiment: Activation-induced apoptosis in RMA cells in vitro; format: cell-based
Procedure: (§1) The mouse lymphoma cell line RMA (van Hall et al., 2000), the human leukemic T cell lines DND-41 (contains a p53 mutation), Jurkat J16, Jurkat A3 and Jurkat A3 deficient in FADD (J-FADDdef) (purchased from American Type Culture Collection, ATCC, Manassas, USA) were cultured in RPMI 1640 medium (GIBCO laboratories, Grand Island, N.Y.) supplemented with 10% FCS, 50 μg/ml gentamicin (GIBCO), 6 mM HEPES (GIBCO, 1 M solution), and 2 mM L-glutamine (GIBCO, 200 mM solution) at 37° C. and 5% CO2. T cells were stimulated with either plate-bound αCD3 (OKT3 10 μg/ml) or PMA (5 ng/ml) plus ionomycin (0.5 μM).
(§2) Cells were plated in triplicates and treated for the indicated periods of time at 37° C. with different reagents as described in the figure legends. Rocaglamide derivatives used in this study were isolated from various Aglaia species to at least 98% purity determined by HPLC as reported previously (Schneider et al., 2000). The structures of the compounds were unequivocally elucidated based on their NMR and mass spectra as described before (Schneider et al., 2000). Apoptotic cell death was examined by two parameters: FSC/SSC index of apoptotic-like change in cell size and granularity by FACScan and by analysis of DNA fragmentation (Vermes et al., 2000).

[3] = Glutamate pyruvate transaminase (GPT) liver toxicity in mice; format: in vivo, mouse; conditions: RMA-grafted mice treated with Roc-Q, Con A or both; normal GPT below 50 U/l
Procedure: To examine the liver toxicity of Rocaglamide, the activities of GPT were determined from the heparinized blood of mice by test strips Reflotron® GPT as described by the instruction of the manufacture (Roche 10745138). The normal levels of GPT activity should be below 50 U/l.

[4] = test system: leukemia cell line Jurkat; experiment: Apoptosis (FSC/SSC) in Jurkat with TNFα or TRAIL; format: cell-based; conditions: 24 h
Procedure: (§3) Pancreatic carcinoma cell lines MiaPaca and Capan-1 were treated with Roc-A (50 nM) in combination with different doses of anticancer reagents for 48 h. Apoptotic cell death was determined by Nicoletti (DNA-fragmentation). The leukemia cell line Jurkat was treated with either TNFα (20 ng/ml) or TRAIL (2 ng/ml) in combination with different doses of rocaglamide as indicated for 24 h. Apoptotic cell death was determined by FSC/SSC.

[5] = test system: MiaPaca pancreatic carcinoma cell line; experiment: Apoptosis (Nicoletti) in MiaPaca with anticancer reagents; format: cell-based; conditions: Roc-A 50 nM with different doses of anticancer reagents, 48 h
Procedure: as §3

[6] = test system: Capan-1 pancreatic carcinoma cell line; experiment: Apoptosis (Nicoletti) in Capan-1 with anticancer reagents; format: cell-based; conditions: Capan-1, Roc-A 50 nM with different doses of anticancer reagents, 48 h
Procedure: as §3

[7] = test system: human leukemic Jurkat T cells; experiment: Apoptosis (FSC/SSC, DNA fragmentation) in Jurkat T cells; format: cell-based
Procedure: as §1, §2

[8] = test system: human leukemic DND-41 T cells (p53 mutation); experiment: Apoptosis in DND-41 T cells; format: cell-based
Procedure: as §1, §2

[9] = test system: normal peripheral blood T cells; experiment: Activation-induced cell death in normal peripheral blood T cells (day 0, day 6); format: cell-based, human
Procedure: Human peripheral T cells were prepared as described previously (Klas et al., 1993) and were more than 90% CD3 positive. For activation, resting T cells (day 0) were cultured at 2×10^6 cells/ml with 1 μg/ml PHA for 16 h (day 1). Day 1 T cells were then washed three times and cultured for an additional 5 days in the presence of 25 U/ml IL-2 (day 6).
as §2

[10] = test system: caspase-8, -9, -3, Bid, PARP; experiment: Western blot of apoptotic pathway proteins in Jurkat T cells; format: cell-based, human; conditions: 24 h
Procedure: 1×10^6 cells were sedimented and lysed for 15 min in ice-cold lyses buffer (29 mM Tris-HCl, pH 7.4, 137 mM NaCl, 10% (w/v) Glycerin, 1% (v/v) Triton X-100, 2 mM EDTA, 1 mM PMSF, 0.4 mM […], 10 mM NaF, complete protease inhibitor cocktail, Roche). After removing the cell debris by centrifugation at 13,000 rpm for 15 min, equal amounts of proteins were separated on a 12% SDS-PAGE, blotted onto a nitrocellulose membrane (Amersham Biosciences, Little Chalfon, UK) and blocked with 5% non-fat drymilk in PBS/Tween (0.05% Tween-20 in PBS). […]

[11] = test system: Hodgkin lymphoma cell line L1236; experiment: Apoptosis (DNA fragmentation) in L1236 cells; format: cell-based, human; conditions: L1236, TRAIL alone, different concentrations, 48 h
Procedure: (§4) The human malignant cell lines used in this study are: the human leukemic T cell lines CEM and Jurkat (J16), the HTLV-1 ATL derived cell lines SP, MT-2, CHAMP, and ATL-3, and Hodgkin lymphoma derived cell lines L1236 and KM-H2. Human peripheral blood T cells were prepared as described previously (Zhu et al., 2009) and were more than 90% CD3 positive. All cells were cultured in RPMI 1640 medium (GIBCO laboratories, Grand Island, N.Y.) supplemented with 10% FCS, 50 μg/ml gentamicin (GIBCO), 6 mM HEPES (GIBCO, 1 M solution), and 2 mM L-glutamine (GIBCO, 200 mM solution) at 37° C. and 5% CO2.
(§5) Cells were plated in triplicates and treated for the indicated periods of time at 37° C. with different doses of Rocaglamide AR (Roc-AR) (>98% pure, assessed by HPLC) (Proksch et al., 2005), Superkiller-TRAIL (Alexis) or LZ-CD95L (Walczak et al., 1999) alone, or in combinations as indicated in figures. Apoptotic cell death was determined by analysis of DNA fragmentation (% DNA fragmentation) as previously described (Krueger et al., 2006). Specific apoptosis was calculated as (percentage of experimental apoptosis−percentage of spontaneous apoptosis)/(100−percentage of spontaneous apoptosis)×100.

[12] = test system: Hodgkin lymphoma cell line KM-H2; experiment: Apoptosis (DNA fragmentation) in KM-H2 cells; format: cell-based, human; conditions: KM-H2, TRAIL alone, different concentrations, 48 h
Procedure: as §4, §5

[13] = test system: HTLV-1-associated ATL cell lines SP, MT-2, ATL-3 and CHAMP; experiment: Apoptosis (DNA fragmentation) in HTLV-1-associated ATL cell lines; format: cell-based, human; conditions: HTLV-1-infected ATL cell lines, TRAIL alone, different concentrations
Procedure: as §4, §5

CNC(=O)C1C(O)C2(O)c3c(OC)cc(OC)cc3OC2(c2ccc(OC)cc2)C1c1ccccc1 (centres unmarked) [Roc-Q]
dose up to which no toxicity was seen ([1]; Lee et al., 1998): ≤ 10 mg/kg body weight | acute toxicity LD50 ([1]; Umezawa et al., 1997): > 300 mg/kg | tumor size and tumor growth rate (RMA tumor; first experiment, 10×10^5 RMA cells, single agent only (Roc-Q 1 mg/kg or Con A 5 mg/kg) i.p. three times per week): No significant changes in tumor size and tumor growth rate | tumor growth (RMA tumor; first experiment, Roc-Q 1 mg/kg combined with Con A 5 mg/kg i.p.): delayed tumor growth | tumor size (RMA tumor; first experiment, Roc-Q 1 mg/kg combined with Con A 5 mg/kg i.p., final day): reduced tumor sizes | body weight loss (RMA tumor; mice after treatment with Roc-Q, Con A or both): no body weight loss | tumor growth (RMA tumor; second experiment, 2.5×10^5 RMA cells, single agent only (Roc-Q 2.5 mg/kg or Con A 5 mg/kg) i.p.): Significantly delayed tumor growth | tumor progression and tumor growth (RMA tumor; second experiment, Roc-Q 2.5 mg/kg combined with Con A 5 mg/kg, except for one mouse): further inhibition | tumor size and tumor weight (RMA tumor; second experiment, Roc-Q alone 2.5 mg/kg): reduced tumor sizes and tumor weight | PMA/ionomycin- or Con A-stimulation induced cell death [2]: enhanced | liver toxicity (GPT activity) [3]: No liver toxicity

COc1ccc([C@@]23Oc4cc(OC)cc(OC)c4[C@]2(O)[C@H](O)[C@H](C(=O)N(C)C)[C@H]3c2ccccc2)cc1 [rocaglamide]
apoptotic cell death ([4]; TNFα 20 ng/ml with different doses of rocaglamide): synergistically increased the apoptic cell death | apoptotic cell death ([4]; TRAIL 2 ng/ml with different doses of rocaglamide): synergistically increased the apoptic cell death

Roc-A
apoptotic cell death [5]: synergistically increased the apoptic cell death | apoptotic cell death [6]: synergistically increased the apoptic cell death | apoptotic cell death ([7]; Jurkat T cells stimulated with αCD3 or PMA/ionomycin in the presence of Roc-A): dose-dependent increase in apoptotic cell death | apoptotic cell death ([7]; Jurkat, Roc-A 50 nM combined with anti-CD95 antibody αAPO-1, 24 h): enhanced apoptotic cell death | apoptotic cell death ([7]; Jurkat, Roc-A 50 nM combined with recombinant LZ-CD95L, 24 h): enhanced apoptotic cell death | PMA/ionomycin- or Con A-stimulation induced cell death [2]: enhanced | cell death compared to Jurkat T cells ([8]; DND-41, Roc-A alone): more resistant | apoptotic cell death ([8]; DND-41, combination of Roc-A and PMA/ionomycin stimulation): dramatic increase in apoptotic cell death | toxicity ([9]; day 0 (resting) T cells, Roc-A alone 50 nM, 48 h): no toxicity | cell death ([9]; day 0 T cells, Roc-A 50 nM with PMA/ionomycin, 48 h): did not increase cell death | PMA/ionomycin-induced cell death ([9]; day 6 (pre-activated) T cells re-stimulated with PMA/ionomycin, Roc-A 50 nM): did not further enhance PMA/ionomycin-induced cell death | caspase and PARP cleavage (Western blot) ([10]; Roc-A alone): activation of caspase-9 and generation of a detectable amount of the active p17 caspase-3 product and weak PARP cleavage | cleavage of caspase-8 (Western blot) ([10]; Roc-A with T-cell stimulation (PMA/ionomycin)): strongly increased cleavages of caspase-8

TRAIL
TRAIL-mediated apoptosis [11]: completely resistant | TRAIL-mediated apoptosis [12]: completely resistant | TRAIL-induced apoptosis [13]: resistant to TRAIL-induced apoptosis
